Source: publication doi:10.1101/2023.11.24.568596v1 (biorxiv, 2023)

Assays:
Settings in all cases: binder
[1] = biological target: T1, MST1 (Homo sapiens, UniProt Q13043)
T1 sequence (Q13043 1-487): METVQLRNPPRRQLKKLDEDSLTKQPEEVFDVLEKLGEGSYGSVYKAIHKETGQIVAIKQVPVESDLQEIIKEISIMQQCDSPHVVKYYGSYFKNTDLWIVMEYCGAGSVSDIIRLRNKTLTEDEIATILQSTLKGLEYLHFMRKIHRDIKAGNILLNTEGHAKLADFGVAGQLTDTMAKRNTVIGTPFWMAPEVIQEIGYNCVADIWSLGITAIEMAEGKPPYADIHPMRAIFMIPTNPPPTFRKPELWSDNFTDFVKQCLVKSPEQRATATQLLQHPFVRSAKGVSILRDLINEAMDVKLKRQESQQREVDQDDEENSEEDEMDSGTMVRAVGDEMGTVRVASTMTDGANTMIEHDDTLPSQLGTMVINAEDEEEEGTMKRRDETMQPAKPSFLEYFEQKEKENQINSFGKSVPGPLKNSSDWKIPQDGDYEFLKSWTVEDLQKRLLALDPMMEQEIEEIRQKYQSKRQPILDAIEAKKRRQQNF

[2] = biological target: SRC (Homo sapiens, UniProt P12931)
[3] = biological target: Wnk1 (Homo sapiens, UniProt Q9H4A3)
[4] = biological target: SRPK1 (Homo sapiens, UniProt Q96SB4)
[5] = biological target: PAK1 (Homo sapiens, UniProt Q13153)
[6] = biological target: T2, MST3 (Homo sapiens, UniProt Q9Y6E0)
[7] = biological target: T3, MST2 (Homo sapiens, UniProt Q13188)
T3 sequence (Q13188 1-491): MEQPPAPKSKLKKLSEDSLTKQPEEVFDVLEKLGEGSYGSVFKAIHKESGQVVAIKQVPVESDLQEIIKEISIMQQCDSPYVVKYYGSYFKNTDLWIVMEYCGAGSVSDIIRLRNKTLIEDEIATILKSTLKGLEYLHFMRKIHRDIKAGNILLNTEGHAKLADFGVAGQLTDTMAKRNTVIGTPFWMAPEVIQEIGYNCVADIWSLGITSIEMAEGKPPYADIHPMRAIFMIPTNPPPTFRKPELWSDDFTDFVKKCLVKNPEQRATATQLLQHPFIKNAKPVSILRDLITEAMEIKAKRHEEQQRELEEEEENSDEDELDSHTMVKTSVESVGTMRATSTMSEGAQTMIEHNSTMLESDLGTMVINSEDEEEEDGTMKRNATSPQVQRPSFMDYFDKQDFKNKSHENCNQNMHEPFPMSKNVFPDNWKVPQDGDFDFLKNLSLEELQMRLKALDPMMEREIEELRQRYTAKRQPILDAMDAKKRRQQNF

[8] = biological target: T4, PHKG2 (Homo sapiens, UniProt P15735)
T4 sequence (P15735 1-406): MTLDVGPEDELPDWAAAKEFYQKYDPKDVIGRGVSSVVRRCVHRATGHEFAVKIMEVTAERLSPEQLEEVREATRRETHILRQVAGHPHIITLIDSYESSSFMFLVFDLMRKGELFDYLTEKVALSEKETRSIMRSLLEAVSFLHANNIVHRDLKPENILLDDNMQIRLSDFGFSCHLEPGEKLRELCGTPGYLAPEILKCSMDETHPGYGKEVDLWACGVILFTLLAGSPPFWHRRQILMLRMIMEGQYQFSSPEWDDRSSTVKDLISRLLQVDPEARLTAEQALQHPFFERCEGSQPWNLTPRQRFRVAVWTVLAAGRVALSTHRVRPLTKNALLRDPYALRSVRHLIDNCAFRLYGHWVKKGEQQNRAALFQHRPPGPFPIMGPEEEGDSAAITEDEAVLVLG

[9] = biological target: LOK (Homo sapiens, UniProt O94804)
[10] = biological target: PIM3 (Homo sapiens, UniProt Q86V86)
[11] = biological target: FGFR1 (Homo sapiens, UniProt P11362)
[12] = biological target: T2, MST3; remark: listed apart in the source
[13] = biological target: T5, Erk7 (Homo sapiens, UniProt Q8TD08)
T5 sequence (Q8TD08 1-544): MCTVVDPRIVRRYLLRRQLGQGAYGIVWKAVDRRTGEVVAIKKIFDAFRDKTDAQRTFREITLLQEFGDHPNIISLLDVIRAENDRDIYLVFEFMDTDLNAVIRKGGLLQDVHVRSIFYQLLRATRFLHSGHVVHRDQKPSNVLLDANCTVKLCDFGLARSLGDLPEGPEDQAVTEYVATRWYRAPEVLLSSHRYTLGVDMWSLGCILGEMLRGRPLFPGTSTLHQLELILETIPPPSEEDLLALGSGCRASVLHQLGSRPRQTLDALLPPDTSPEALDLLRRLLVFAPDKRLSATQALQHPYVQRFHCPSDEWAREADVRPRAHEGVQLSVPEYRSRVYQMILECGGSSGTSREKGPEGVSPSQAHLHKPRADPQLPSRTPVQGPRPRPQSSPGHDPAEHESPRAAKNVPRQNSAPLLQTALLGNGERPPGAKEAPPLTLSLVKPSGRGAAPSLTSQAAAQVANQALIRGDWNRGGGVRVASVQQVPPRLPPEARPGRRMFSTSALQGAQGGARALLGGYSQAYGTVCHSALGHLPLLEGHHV

Chain of SRPK1 (Q96SB4 whole entry): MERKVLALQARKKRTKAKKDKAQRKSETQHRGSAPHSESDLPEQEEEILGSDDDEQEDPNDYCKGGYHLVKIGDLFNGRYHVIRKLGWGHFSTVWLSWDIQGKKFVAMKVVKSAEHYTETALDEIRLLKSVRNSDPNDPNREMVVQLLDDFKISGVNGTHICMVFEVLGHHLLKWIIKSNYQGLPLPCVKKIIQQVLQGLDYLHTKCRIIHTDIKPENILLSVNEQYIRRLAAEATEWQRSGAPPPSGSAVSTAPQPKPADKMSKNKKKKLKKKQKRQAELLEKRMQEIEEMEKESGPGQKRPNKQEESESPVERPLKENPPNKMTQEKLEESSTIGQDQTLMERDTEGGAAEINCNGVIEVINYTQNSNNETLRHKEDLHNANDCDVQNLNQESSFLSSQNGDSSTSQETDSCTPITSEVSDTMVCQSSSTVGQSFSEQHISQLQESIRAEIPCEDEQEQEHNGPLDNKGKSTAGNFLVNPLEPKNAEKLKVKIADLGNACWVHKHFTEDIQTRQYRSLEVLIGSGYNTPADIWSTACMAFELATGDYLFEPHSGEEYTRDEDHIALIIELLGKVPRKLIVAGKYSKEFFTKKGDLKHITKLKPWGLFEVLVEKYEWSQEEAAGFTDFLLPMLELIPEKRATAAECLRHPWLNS
T2 sequence (Q9Y6E0 whole entry): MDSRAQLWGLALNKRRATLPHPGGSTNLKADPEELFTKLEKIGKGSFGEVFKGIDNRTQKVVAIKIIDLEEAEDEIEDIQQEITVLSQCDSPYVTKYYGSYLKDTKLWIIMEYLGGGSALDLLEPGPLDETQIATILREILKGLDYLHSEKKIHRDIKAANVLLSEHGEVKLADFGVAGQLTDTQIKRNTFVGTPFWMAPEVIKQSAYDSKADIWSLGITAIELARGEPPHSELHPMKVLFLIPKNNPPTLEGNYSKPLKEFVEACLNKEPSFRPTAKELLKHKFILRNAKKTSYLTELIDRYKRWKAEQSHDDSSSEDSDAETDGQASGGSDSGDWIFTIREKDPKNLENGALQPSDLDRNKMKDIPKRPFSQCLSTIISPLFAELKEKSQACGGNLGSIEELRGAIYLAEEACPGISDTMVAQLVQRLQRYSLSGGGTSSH
Chain of LOK (O94804 whole entry): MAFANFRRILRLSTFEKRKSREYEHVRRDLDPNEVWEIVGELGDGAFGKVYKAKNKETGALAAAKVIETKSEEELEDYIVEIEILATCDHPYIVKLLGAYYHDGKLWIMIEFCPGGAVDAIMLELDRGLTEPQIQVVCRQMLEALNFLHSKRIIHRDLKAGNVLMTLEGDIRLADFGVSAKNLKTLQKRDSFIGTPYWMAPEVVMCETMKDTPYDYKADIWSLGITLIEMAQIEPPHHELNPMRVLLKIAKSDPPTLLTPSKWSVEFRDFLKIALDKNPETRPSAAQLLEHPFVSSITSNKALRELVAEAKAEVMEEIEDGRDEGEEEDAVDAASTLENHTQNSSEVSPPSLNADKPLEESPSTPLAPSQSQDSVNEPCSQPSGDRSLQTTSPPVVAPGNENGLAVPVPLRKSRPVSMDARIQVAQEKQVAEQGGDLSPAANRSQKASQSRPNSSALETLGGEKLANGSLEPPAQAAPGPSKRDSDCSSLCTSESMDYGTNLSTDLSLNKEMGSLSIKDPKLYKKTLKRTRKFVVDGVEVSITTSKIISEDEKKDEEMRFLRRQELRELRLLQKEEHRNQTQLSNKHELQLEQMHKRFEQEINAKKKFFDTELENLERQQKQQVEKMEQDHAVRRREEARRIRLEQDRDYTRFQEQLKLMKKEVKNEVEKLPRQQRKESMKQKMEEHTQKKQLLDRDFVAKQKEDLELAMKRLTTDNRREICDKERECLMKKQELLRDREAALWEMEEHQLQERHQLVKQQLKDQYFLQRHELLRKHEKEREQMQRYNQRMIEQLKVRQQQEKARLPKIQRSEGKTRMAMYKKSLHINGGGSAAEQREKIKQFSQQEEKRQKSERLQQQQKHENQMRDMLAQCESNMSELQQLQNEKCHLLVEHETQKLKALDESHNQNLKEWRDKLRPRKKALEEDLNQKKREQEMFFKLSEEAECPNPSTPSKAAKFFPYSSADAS
Chain of SRC (P12931 whole entry): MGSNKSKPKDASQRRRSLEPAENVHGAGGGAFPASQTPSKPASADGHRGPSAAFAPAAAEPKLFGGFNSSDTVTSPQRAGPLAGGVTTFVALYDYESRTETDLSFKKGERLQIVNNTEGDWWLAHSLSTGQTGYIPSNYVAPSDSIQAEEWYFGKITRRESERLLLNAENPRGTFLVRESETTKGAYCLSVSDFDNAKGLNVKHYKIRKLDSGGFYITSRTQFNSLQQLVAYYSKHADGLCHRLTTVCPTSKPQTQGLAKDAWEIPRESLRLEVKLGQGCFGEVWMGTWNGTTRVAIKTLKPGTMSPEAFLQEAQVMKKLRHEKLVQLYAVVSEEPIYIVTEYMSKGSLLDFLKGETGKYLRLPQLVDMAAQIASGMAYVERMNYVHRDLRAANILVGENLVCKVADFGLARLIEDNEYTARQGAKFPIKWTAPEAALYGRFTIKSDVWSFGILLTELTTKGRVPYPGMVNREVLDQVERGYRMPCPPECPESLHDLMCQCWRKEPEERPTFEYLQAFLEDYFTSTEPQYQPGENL
Chain of Wnk1 (Q9H4A3 whole entry): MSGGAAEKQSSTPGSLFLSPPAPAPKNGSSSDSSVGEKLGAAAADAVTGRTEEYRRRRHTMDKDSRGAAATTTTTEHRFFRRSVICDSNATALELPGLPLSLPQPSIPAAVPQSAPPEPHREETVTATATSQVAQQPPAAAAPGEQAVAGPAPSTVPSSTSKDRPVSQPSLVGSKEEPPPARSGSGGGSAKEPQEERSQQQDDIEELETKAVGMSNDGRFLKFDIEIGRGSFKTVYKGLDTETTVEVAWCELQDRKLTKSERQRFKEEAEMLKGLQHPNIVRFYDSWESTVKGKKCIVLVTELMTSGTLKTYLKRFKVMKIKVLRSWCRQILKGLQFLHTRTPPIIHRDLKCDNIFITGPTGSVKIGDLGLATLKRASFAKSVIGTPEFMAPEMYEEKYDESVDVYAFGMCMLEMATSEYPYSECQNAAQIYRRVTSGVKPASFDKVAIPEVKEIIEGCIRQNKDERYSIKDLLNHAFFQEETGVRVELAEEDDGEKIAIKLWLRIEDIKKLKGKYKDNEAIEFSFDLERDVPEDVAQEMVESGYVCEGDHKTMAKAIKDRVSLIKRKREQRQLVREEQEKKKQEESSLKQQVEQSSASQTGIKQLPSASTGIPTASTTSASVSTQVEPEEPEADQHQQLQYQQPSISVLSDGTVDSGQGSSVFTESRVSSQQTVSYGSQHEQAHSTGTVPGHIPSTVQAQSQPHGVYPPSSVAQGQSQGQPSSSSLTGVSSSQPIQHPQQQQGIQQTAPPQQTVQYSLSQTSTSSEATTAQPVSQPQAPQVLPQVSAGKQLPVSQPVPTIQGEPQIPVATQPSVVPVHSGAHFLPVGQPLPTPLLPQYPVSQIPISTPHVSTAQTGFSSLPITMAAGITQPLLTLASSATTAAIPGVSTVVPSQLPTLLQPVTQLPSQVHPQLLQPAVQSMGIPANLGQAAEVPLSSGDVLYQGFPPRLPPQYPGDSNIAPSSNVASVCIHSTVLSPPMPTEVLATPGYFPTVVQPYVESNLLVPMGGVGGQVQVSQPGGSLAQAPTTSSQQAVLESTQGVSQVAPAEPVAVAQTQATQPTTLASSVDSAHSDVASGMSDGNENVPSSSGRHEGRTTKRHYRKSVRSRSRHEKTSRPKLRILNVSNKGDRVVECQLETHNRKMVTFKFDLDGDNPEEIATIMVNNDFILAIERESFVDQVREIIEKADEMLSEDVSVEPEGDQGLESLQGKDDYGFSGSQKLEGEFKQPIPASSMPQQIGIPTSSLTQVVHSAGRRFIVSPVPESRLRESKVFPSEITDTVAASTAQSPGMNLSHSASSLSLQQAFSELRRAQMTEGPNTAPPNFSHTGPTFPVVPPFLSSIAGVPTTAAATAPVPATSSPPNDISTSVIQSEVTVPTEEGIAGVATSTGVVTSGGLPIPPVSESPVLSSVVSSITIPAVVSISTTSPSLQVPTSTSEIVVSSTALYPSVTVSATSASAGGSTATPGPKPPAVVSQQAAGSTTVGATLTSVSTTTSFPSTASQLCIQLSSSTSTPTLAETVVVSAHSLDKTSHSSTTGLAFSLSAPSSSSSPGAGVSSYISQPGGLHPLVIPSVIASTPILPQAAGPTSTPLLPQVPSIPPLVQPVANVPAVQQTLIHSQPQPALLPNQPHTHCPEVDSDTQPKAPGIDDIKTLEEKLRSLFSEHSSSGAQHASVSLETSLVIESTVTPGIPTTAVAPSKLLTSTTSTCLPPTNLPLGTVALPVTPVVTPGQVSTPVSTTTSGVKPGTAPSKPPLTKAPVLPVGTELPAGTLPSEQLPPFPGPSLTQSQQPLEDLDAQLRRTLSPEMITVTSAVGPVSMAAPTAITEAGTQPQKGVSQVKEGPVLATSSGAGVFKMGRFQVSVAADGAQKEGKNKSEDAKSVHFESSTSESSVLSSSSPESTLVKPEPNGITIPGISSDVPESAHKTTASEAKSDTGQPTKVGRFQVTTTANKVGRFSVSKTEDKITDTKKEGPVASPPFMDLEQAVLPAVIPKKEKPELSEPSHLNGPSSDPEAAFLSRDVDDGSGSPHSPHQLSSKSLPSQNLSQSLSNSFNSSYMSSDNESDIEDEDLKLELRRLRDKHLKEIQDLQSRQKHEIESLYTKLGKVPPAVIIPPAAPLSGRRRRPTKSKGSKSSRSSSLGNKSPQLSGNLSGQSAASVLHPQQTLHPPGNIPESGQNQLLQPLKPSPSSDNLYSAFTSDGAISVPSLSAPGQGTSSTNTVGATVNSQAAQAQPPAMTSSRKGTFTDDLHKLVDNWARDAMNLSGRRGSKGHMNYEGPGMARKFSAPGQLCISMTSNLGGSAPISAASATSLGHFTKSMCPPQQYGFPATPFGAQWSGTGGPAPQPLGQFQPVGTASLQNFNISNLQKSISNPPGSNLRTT

SMILES: Cc1cccc(-c2ccc(-c3cc4cnc(NCCCc5ccc(N)cc5)nc4n(CCCCN)c3=O)c(Cl)c2)n1 [compound 25, 8-(4-Aminobutyl)-2-((3-(4-aminophenyl)propyl)amino)-6-(2-chloro-4-(6-methylpyridin-2-yl)phenyl)pyrido[2,3-d]pyrimidin-7(8H)-one]
- dTm MST1 [1]: 4.9 °C
- ΔTm 25 [2]: 1.0 °C
- ΔTm 25 [3]: 2.7 °C
- ΔTm 25 [4]: 0.1 °C
- dTm PAK1 [5]: 6.8 °C
- dTm MST3 [6]: 12.2 °C
- dTm MST2 [7]: 7.2 °C
- ΔTm 25 [8]: 4.0 °C
- ΔTm 25 [9]: -0.7 °C
- ΔTm 25 [10]: -0.8 °C
- ΔTm 25 [11]: -0.4 °C
- ΔTm 25 [12]: 11.8 °C
- ΔTm 25 [13]: 2.9 °C

SMILES: Cc1cccc(-c2ccc(-c3cc4cnc(NC(CO)CO)nc4n(CCCCN)c3=O)c(Cl)c2)n1 [compound 24, 8-(4-Aminobutyl)-6-(2-chloro-4-(6-methylpyridin-2-yl)phenyl)-2-((1,3-dihydroxypropan-2-yl)amino)pyrido[2,3-d]pyrimidin-7(8H)-one]
- dTm MST1 [1]: 2.1 °C
- ΔTm MR24 (24) [2]: 0.0 °C
- ΔTm MR24 (24) [3]: 0.2 °C
- ΔTm MR24 (24) [4]: -0.1 °C
- dTm PAK1 [5]: 5.1 °C
- dTm MST3 [6]: 10.6 °C
- dTm MST2 [7]: 4.6 °C
- ΔTm MR24 (24) [8]: 1.0 °C
- ΔTm MR24 (24) [9]: -0.6 °C
- ΔTm MR24 (24) [10]: -1.9 °C
- ΔTm MR24 (24) [11]: 0.4 °C
- ΔTm MR24 (24) [12]: 11.0 °C
- ΔTm MR24 (24) [13]: -0.4 °C

SMILES: CNc1ncc2cc(-c3ccc(-c4cccc(C)n4)cc3Cl)c(=O)n(C[C@H]3CC[C@H](N)CC3)c2n1 [compound 23, 23]
- ΔTm 23 [2]: 1.2 °C
- ΔTm 23 [3]: 2.1 °C
- ΔTm 23 [4]: -0.5 °C
- ΔTm 23 [8]: 2.4 °C
- ΔTm 23 [9]: 13.0 °C
- ΔTm 23 [10]: 0.3 °C
- ΔTm 23 [11]: 0.7 °C
- ΔTm 23 [12]: 10.8 °C
- ΔTm 23 [13]: 4.2 °C

SMILES: Cc1cccc(-c2ccc(-c3cc4cnc(NCCCN5CCOCC5)nc4n(CCCCN)c3=O)c(Cl)c2)n1 [compound 26, MR26]
- dTm MST1 [1]: 3.6 °C
- ΔTm MR26 (26) [2]: 1.4 °C
- ΔTm MR26 (26) [3]: 1.0 °C
- ΔTm MR26 (26) [4]: 0.1 °C
- dTm PAK1 [5]: 4.1 °C
- dTm MST3 [6]: 11.6 °C
- dTm MST2 [7]: 5.9 °C
- ΔTm MR26 (26) [8]: 2.1 °C
- ΔTm MR26 (26) [9]: -0.4 °C
- ΔTm MR26 (26) [10]: -0.1 °C
- ΔTm MR26 (26) [11]: 0.3 °C
- ΔTm MR26 (26) [12]: 12.4 °C
- ΔTm MR26 (26) [13]: -0.4 °C

SMILES: CNc1ncc2cc(-c3ccc(-c4cccc(C)n4)cc3Cl)c(=O)n(CCC3CCNCC3)c2n1 [compound 22, 6-(2-Chloro-4-(6-methylpyridin-2-yl)phenyl)-2-(methylamino)-8-(2-(piperidin-4-yl)ethyl)pyrido[2,3-d]pyrimidin-7(8H)-one]
- ΔTm 22 [2]: 0.6 °C
- ΔTm 22 [3]: 1.5 °C
- ΔTm 22 [4]: -0.2 °C
- ΔTm 22 [8]: 1.4 °C
- ΔTm 22 [9]: 11.4 °C
- ΔTm 22 [10]: -1.2 °C
- ΔTm 22 [11]: 1.1 °C
- ΔTm 22 [12]: 10.5 °C
- ΔTm 22 [13]: 1.5 °C

SMILES: CNc1ncc2cc(-c3ccc(-c4cccc(C)n4)cc3Cl)c(=O)n(CCCCN)c2n1 [compound 20, MRLW5]
- ΔTm MRLW5 (20) [2]: 0.9 °C
- ΔTm MRLW5 (20) [3]: 1.7 °C
- ΔTm MRLW5 (20) [4]: -0.2 °C
- ΔTm MRLW5 (20) [8]: 1.8 °C
- ΔTm MRLW5 (20) [9]: 12.5 °C
- ΔTm MRLW5 (20) [10]: -1.2 °C
- ΔTm MRLW5 (20) [11]: 0.4 °C
- ΔTm MRLW5 (20) [12]: 11.7 °C
- ΔTm MRLW5 (20) [13]: 1.0 °C
